Measured values published in patent publication EP4029374A1, “NITROGEN CONTAINING SURFACTANTS FOR AGRICULTURAL USE” (Nouryon Chemicals International B.V., priority 2021, dated 2022).

Columns and labels:
[1] = Solubility of prior art betaine surfactants in concentrated glyphosate salt compositions; assay type: physicochemical
Text: WO2000038523 (Huntsman, US6500784, US6653257, EP1139761) discloses an amphoteric surfactant with the structure RCONH(CH2)n N^+R^12CH2COO- wherein R1 is alkyl or hydroxyl alkyl group with C1 to C4 and n = 2 - 4, and discloses a betaine with the structure R R^12N^+CH2COO- wherein R1 is alkyl or hydroxyl alkyl group with C1 to C4. The amphoterics disclosed there mainly functioned as a co-surfactant to solubilize a ether carboxylate in to concentrated glyphosate systems. In the context of the document, there was no mention of bioefficacy of betaines or other amphoteric surfactants by themselves. […] However, without proper testing of individual surfactant, it is not possible to determine whether the effect seen in the mixture of three surfactants comes from the claimed surfactant or the other two surfactants. Moreover, no actual bioefficacy data and especially no data are provided on the degree of "overall kill" provided in the absence of surfactants and in the presence of surfactants; without such data it is not possible to determine whether or not the claimed alkyl amido betaine was effective in enhancing herbicidal activity of glyphosate under the conditions of the test reported. This patent requires Na ion to be < 0.035% for the glyphosate formulation to be stable. Moreover, it used only IPA-glyphosate as examples. It is only recently known that many soluble surfactants in IPA-glyphosate are not soluble in concentrated K or NH4 glyphosate formulations. […] Since stearyl dimethylamidopropyl betaine itself had poor solubility in concentrated potassium glyphosate system, it is expected that the solubility of stearyl dimethylamidopropyl betaine plus ether carboxylate would be even worst in the concentrated potassium glyphosate system. Therefore, the claimed formulation in claim 1 in the document may not be stable, that is not useful, in a concentrated K glyphosate system.
US 20050170965 also indicates the aqueous glyphosate formulation is stable on storage. However, it is only recently known that many stable surfactants in IPA-glyphosate are not soluble in concentrated K or NH4 glyphosate formulations. Tests indicate that a composition of 360 g ae/l di-ammonium glyphosate could not dissolve 5.4% coco dimethyl betaine and a composition of 480 g ae/l potassium glyphosate could not dissolve 5.4% coco dimethylamidopropyl betaine. Since coco dimethyl betaine and coco dimethylamidopropyl betaine had poor solubility in concentrated potassium and di-ammonium glyphosate systems, it is expected that the claimed formulation in claim 16 of the document may not be stable in concentrated K or NH4 glyphosate systems. […]

wheat = experiment: Glyphosate formulation trial on wheat (Example 5); assay type: in vivo; conditions: 168 g ae/ha; glyphosate to surfactant ratio 3 : 1; picture taken at 21DAT (FIG. 13)
Text: Cocoamine-6EO betaine was compared in the same trial with tallowamine-15EO as the positive control and the surfactant-free sample as negative control in glyphosate formulations. Glyphosate to surfactant ratio was 3 : 1.
This can be seen from the picture at FIG. 13, taken at 21DAT.

morning glory; wheat = experiment: Green house trial of glyphosate formulations, % Control (Example 3); assay type: in vivo; conditions: 930, 465 and 233 g ae/ha; 28 DAT; compared with glyphosate formulation without surfactant; result in words (FIGS. 9-10)
Text: Glyphosate formulation containing oleylamphopolycarboxy glycinate (Na salt) was compared in a green house trial with glyphosate formulation containing tallowamine-10EO (as positive control) and glyphosate alone in terms of % Control. Three glyphosate rates were used, 930 g ae/ha, 465 gae/ha, and 233 g ae/ha.
The results are plotted in FIGS. 9-10.

[2] = test system: morning glory (IPOHE, a broad leaf week) and winter wheat (TRZAW, a narrow leaf grass); experiment: Greenhouse spray of concentrated glyphosate samples, % control at 28 DAT (Example 2); assay type: in vivo; conditions: glyphosate : surfactant 13:1, 489 and 978 g ae/H, result in words (FIGS. 7-8)
Procedure: Table. 3 Studied glyphosate formulations using various surfactants
The concentrated glyphosate samples were diluted to two glyphosate rates and sprayed in a green house so that the final glyphosate rates of the spray solutions were 489 and 978 g ae/H. Three samples at two rates equals six treatments that were sprayed on each of two species, morning glory (IPOHE, a broad leaf week) and winter wheat (TRZAW, a narrow leaf grass). […]
Higher ratio means lower surfactant concentration. A ratio of 13:1 means the sample, at the same glyphosate concentration, has 4.3 times less surfactant than a sample with a ratio of 3:1.
Sample A (glyphosate with added tallowamine-15EO) served as a positive control. Sample B containing only glyphosate without added surfactant served as a negative control.
FIGS. 7-8 illustrates the % control results at 28 DAT.

CCCCCCCCCCCCCCCCCC(=O)NCCC[N+](C)(C)CC(=O)[O-] [stearyl dimethylamidopropyl betaine]
surfactant solubility ([1]; in a composition of 51.3% potassium glyphosate): < 1.8%

Ethoxylated cocoamine (6EO) betaine [cocoamine-6EO betaine]
control to wheat (wheat): excellent control

coco dimethyl betaine
surfactant solubility ([1]; in a composition of 360 g ae/l di-ammonium glyphosate): < 5.4%

coco dimethylamidopropyl betaine
surfactant solubility ([1]; in a composition of 360 g ae/l potassium glyphosate): < 80 g/L | surfactant solubility ([1]; in a composition of 480 g ae/l potassium glyphosate): < 5.4%

oleylamphopolycarboxy glycinate (Na salt)
glyphosate efficacy (morning glory; wheat): enhanced glyphosate efficacy

tallow diamine trimethyl di-betaine
glyphosate bioefficacy [2]: enhanced glyphosate bioefficacy even at very low rate

tallowamine-15EO
control to wheat (wheat): excellent control
